The term IC50 denotes the concentration needed to halve the response being measured. The term EC50 denotes the concentration giving half of the maximal effect. A higher EC50 goes with lower potency in that assay.

One test addresses Pim 2 (Homo sapiens, UniProt Q9P1W9). Put plainly: Pim 2 AlphaScreen assay (high ATP). A general note: Alpha assays give light when donor and acceptor beads are brought close together.
Another test deals with Pim 3 (Homo sapiens, UniProt Q86V86). As to the kind of experiment: Pim 3 AlphaScreen assay (high ATP).
For test [1], the system named is KMS11 (human myeloma cell line). Put plainly: Cell Proliferation Assay (CellTiter-Glo, 3 days). The format is cell-based. Particulars: KMS-11, 72 h, KMS11-luc cells. Put shortly: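 EC50 from CellTiter-Glo luminescence after 3-day, 37° C compound treatment of KMS11 cells seeded at 2000 per well in IMDM plus 10% FBS.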
For orientation: ATP-based viability assays read luminescence as a measure of living cells.

For a further test, the target named is Pim 1 (Homo sapiens, UniProt P11309). As to the kind of experiment: Pim 1 AlphaScreen assay (high ATP).
Sequence of Pim 1 (P11309 whole entry): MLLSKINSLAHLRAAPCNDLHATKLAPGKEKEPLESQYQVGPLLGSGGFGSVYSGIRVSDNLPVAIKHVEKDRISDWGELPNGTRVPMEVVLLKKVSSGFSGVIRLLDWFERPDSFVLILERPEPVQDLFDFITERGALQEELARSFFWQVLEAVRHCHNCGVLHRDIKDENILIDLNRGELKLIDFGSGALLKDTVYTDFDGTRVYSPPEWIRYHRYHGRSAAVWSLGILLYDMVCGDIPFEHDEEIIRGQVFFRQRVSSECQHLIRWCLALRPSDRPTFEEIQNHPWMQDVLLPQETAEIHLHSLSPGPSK

Sequence of Pim 2 (Q9P1W9 whole entry): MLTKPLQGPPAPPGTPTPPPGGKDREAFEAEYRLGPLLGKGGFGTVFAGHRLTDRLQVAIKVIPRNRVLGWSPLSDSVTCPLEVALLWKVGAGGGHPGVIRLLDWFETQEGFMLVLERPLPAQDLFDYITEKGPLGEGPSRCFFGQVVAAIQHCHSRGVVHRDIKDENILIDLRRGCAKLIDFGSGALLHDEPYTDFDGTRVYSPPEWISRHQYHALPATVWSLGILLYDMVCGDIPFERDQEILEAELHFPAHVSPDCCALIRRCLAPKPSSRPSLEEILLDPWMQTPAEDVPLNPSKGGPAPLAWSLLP
Protocol for Pim 1: (§1) The activity of Pim 1, Pim 2, & Pim 3 is measured using a homogeneous bead based system quantifying the amount of phosphorylated peptide substrate resulting from kinase-catalyzed phosphoryl transfer to a peptide substrate. Compounds to be tested are dissolved in 100% DMSO and directly distributed to a white 384-well plate at 0.25 μl per well. […] This is followed by the addition of 5 μl/well of Pim 1, Pim 2 or Pim 3 kinase in assay buffer (concentrations described below). Final assay concentrations (described below) are in 2.5% DMSO. The reactions are performed for ˜2 hours, then stopped by the addition of 10 μl of 0.75 μg/ml anti-phospho Ser/Thr antibody (Cell Signaling), 10 μg/ml Protein A AlphaScreen beads (Perkin Elmer), and 10 μg/ml streptavidin coated AlphaScreen beads in stop/detection buffer (50 mM EDTA, 95 mM Tris, pH=7.5, 0.01% Tween-20). The stopped reactions are incubated overnight in the dark. The phosphorylated peptide is detected via an oxygen anion initiated chemiluminescence/fluorescence cascade using the Envision plate reader (Perkin Elmer).
Protocol for Pim 2: as §1

With `C[C@@H]1C[C@H](N)C[C@H](c2ccncc2NC(=O)c2ccc(F)c(-c3c(F)cc(CCO)cc3F)n2)C1` [Example 33, N-(4-((1R,3S,5S)-3-amino-5-methylcyclohexyl)pyridin-3-yl)-6-(2,6-difluoro-4-(2-hydroxyethyl)phenyl)-5-fluoropicolinamide], the IC50 against Pim 2 was 1.52 nM; against Pim 3 it was 1 nM; at Pim 1 it was 0.02 nM. The EC50 in test [1] was 13 nM.
For `C[C@H]1CN(c2ccncc2NC(=O)c2ccc(F)c(-c3c(F)cc(CCO)cc3F)n2)C[C@@H](N)[C@@H]1O` [Example 35, N-(4-((3R,4R,5S)-3-amino-4-hydroxy-5-methylpiperidin-1-yl)pyridin-3-yl)-6-(2,6-difluoro-4-(2-hydroxyethyl)phenyl)-5-fluoropicolinamide], the IC50 against Pim 2 came out at 1.09 nM; at Pim 3, 0.36 nM; at Pim 1, 0.03 nM. Moreover, it took 7 nM to reach a half-maximal effect in test [1] (EC50).
`Cc1cc(F)c(-c2nc(C(=O)Nc3cnccc3N3C[C@@H](N)[C@H](O)[C@@H](C)C3)ccc2F)c(F)c1` [Example 37, N-(4-((3R,4R,5S)-3-amino-4-hydroxy-5-methylpiperidin-1-yl)pyridin-3-yl)-6-(2,6-difluoro-4-methylphenyl)-5-fluoropicolinamide]: the IC50 against Pim 2 was 0.94 nM; at Pim 3, 0.28 nM; against Pim 1, 0.02 nM. Further, in test [1], the EC50 worked out at 13 nM.
On the same counts, the results for `COCc1cc(F)c(-c2nc(C(=O)Nc3cnccc3N3C[C@@H](N)[C@H](O)[C@@H](C)C3)ccc2F)c(F)c1` [Example 38, N-(4-((3R,4R,5S)-3-amino-4-hydroxy-5-methylpiperidin-1-yl)pyridin-3-yl)-6-(2,6-difluoro-4-(methoxymethyl)phenyl)-5-fluoropicolinamide] are 1.35 nM, 0.47 nM, 0.03 nM and 10 nM.
Turning to `COCc1cc(F)c(-c2nc(C(=O)Nc3cnccc3[C@H]3C[C@@H](N)[C@H](O)[C@@H](C)C3)ccc2F)c(F)c1` [Example 40, N-(4-((1R,3R,4R,5S)-3-amino-4-hydroxy-5-methylcyclohexyl)pyridin-3-yl)-6-(2,6-difluoro-4-(methoxymethyl)phenyl)-5-fluoropicolinamide], the IC50 against Pim 2 was 3.98 nM; at Pim 3, 2.63 nM; against Pim 1, 0.08 nM. It took 68 nM to reach a half-maximal effect in test [1] (EC50).
As for `COCc1cc(F)c(-c2nc(C(=O)Nc3cnccc3[C@@H]3C[C@H](C)C[C@H](N)C3)ccc2F)c(F)c1` [Example 41, N-(4-((1R,3S,5S)-3-amino-5-methylcyclohexyl)pyridin-3-yl)-6-(2,6-difluoro-4-(methoxymethyl)phenyl)-5-fluoropicolinamide], the figures for the half-inhibitory concentration (IC50) on Pim 2, against Pim 3 and against Pim 1 were 2.78 nM, 2.14 nM and 0.04 nM, respectively. In test [1], this compound displayed an EC50 of 22 nM.
Consider `C[C@H]1C[C@@H](c2ccncc2NC(=O)c2ccc(F)c(-c3c(F)cc(OCC4CC4)cc3F)n2)C[C@@H](N)[C@@H]1O` [Example 42, N-(4-((1R,3R,4R,5S)-3-amino-4-hydroxy-5-methylcyclohexyl)pyridin-3-yl)-6-(4-(cyclopropylmethoxy)-2,6-difluorophenyl)-5-fluoropicolinamide], for which the IC50 on Pim 2 came to 2.77 nM; against Pim 3, 0.8 nM; at Pim 1, 0.03 nM. Further, the EC50 in test [1] came out at 139 nM.
On the same counts, the results for `CCC(=O)c1cc(F)c(-c2nc(C(=O)Nc3cnccc3[C@@H]3C[C@H](C)C[C@H](N)C3)ccc2F)c(F)c1` [Example 43, N-(4-((1R,3S,5S)-3-amino-5-methylcyclohexyl)pyridin-3-yl)-6-(2,6-difluoro-4-propionylphenyl)-5-fluoropicolinamide] are 15.3 nM, 11.4 nM, 0.14 nM and 43 nM.
With `C[C@@H]1C[C@H](N)C[C@H](c2ccncc2NC(=O)c2ccc(F)c(-c3c(F)cc(C4(O)CC4)cc3F)n2)C1` [Example 44, N-(4-((1R,3S,5S)-3-amino-5-methylcyclohexyl)pyridin-3-yl)-6-(2,6-difluoro-4-(1-hydroxycyclopropyl)phenyl)-5-fluoropicolinamide], the IC50 is 2.03 nM against Pim 2, 0.77 nM against Pim 3 and 0.01 nM against Pim 1. Besides, in test [1], the response was half-maximal at 18 nM (EC50).
The matching figures for `COC(C)(C)COc1cc(F)c(-c2nc(C(=O)Nc3cnccc3[C@H]3C[C@@H](N)[C@H](O)[C@@H](C)C3)ccc2F)c(F)c1` [Example 45, N-(4-((1R,3R,4R,5S)-3-amino-4-hydroxy-5-methylcyclohexyl)pyridin-3-yl)-6-(2,6-difluoro-4-(2-methoxy-2-methylpropoxy)phenyl)-5-fluoropicolinamide]: 3.15 nM, 1.13 nM, 0.03 nM and 49 nM.
As for `COC(C)(C)COc1cc(F)c(-c2nc(C(=O)Nc3cnccc3[C@@H]3C[C@H](C)C[C@H](N)C3)ccc2F)c(F)c1` [Example 46, N-(4-((1R,3S,5S)-3-amino-5-methylcyclohexyl)pyridin-3-yl)-6-(2,6-difluoro-4-(2-methoxy-2-methylpropoxy)phenyl)-5-fluoropicolinamide], the IC50 on Pim 2 was determined as 2.77 nM; against Pim 3, 0.85 nM; at Pim 1 it was 0.02 nM. Also, in test [1], a half-maximal response (EC50) required 84 nM.
The matching figures for `C[C@H]1C[C@@H](c2ccncc2NC(=O)c2ccc(F)c(-c3c(F)cc(OC4COC4)cc3F)n2)C[C@@H](N)[C@@H]1O` [Example 47, N-(4-((1R,3R,4R,5S)-3-amino-4-hydroxy-5-methylcyclohexyl)pyridin-3-yl)-6-(2,6-difluoro-4-(oxetan-3-yloxy)phenyl)-5-fluoropicolinamide]: 6.33 nM, 1.32 nM, 0.04 nM and 97 nM.
As to `C[C@@H]1C[C@H](N)C[C@H](c2ccncc2NC(=O)c2ccc(F)c(-c3c(F)cc(OC4COC4)cc3F)n2)C1` [Example 48, N-(4-((1R,3S,5S)-3-amino-5-methylcyclohexyl)pyridin-3-yl)-6-(2,6-difluoro-4-(oxetan-3-yloxy)phenyl)-5-fluoropicolinamide], the values for the IC50 at Pim 2, on Pim 3 and against Pim 1 were 4.16 nM, 0.24 nM and 0.08 nM, respectively. In test [1], this compound registered an EC50 of 84 nM.
For the compound `COC(C)(C)c1cc(F)c(-c2nc(C(=O)Nc3cnccc3[C@@H]3C[C@H](C)C[C@H](N)C3)ccc2F)c(F)c1` [Example 49, N-(4-((1R,3S,5S)-3-amino-5-methylcyclohexyl)pyridin-3-yl)-6-(2,6-difluoro-4-(2-methoxypropan-2-yl)phenyl)-5-fluoropicolinamide], the IC50 against Pim 2 came to 2.67 nM; against Pim 3 it was 1.86 nM; against Pim 1, 0.03 nM. The EC50 in test [1] was 53 nM.
Turning to `C[C@@H]1C[C@H](N)C[C@H](c2ccncc2NC(=O)c2ccc(F)c(-c3c(F)cc(OCC(C)(C)O)cc3F)n2)C1` [Example 50, N-(4-((1R,3S,5S)-3-amino-5-methylcyclohexyl)pyridin-3-yl)-6-(2,6-difluoro-4-(2-hydroxy-2-methylpropoxy)phenyl)-5-fluoropicolinamide], the results for the IC50 at Pim 2, at Pim 3 and against Pim 1 were 3.28 nM, 0.72 nM and 0.02 nM, respectively. In test [1], this compound returned an EC50 of 13 nM.
For `C[C@H]1C[C@@H](c2ccncc2NC(=O)c2ccc(F)c(-c3c(F)cc(OCC(C)(C)O)cc3F)n2)C[C@@H](N)[C@@H]1O` [Example 51, N-(4-((1R,3R,4R,5S)-3-amino-4-hydroxy-5-methylcyclohexyl)pyridin-3-yl)-6-(2,6-difluoro-4-(2-hydroxy-2-methylpropoxy)phenyl)-5-fluoropicolinamide], the IC50 against Pim 2 worked out at 4.34 nM; against Pim 3, 1.02 nM; against Pim 1, 0.03 nM. The same compound gave an EC50 in test [1] of 30 nM.
On to `COC1(c2cc(F)c(-c3nc(C(=O)Nc4cnccc4[C@H]4C[C@@H](N)[C@H](O)[C@@H](C)C4)ccc3F)c(F)c2)COC1` [Example 52, N-(4-((1R,3R,4R,5S)-3-amino-4-hydroxy-5-methylcyclohexyl)pyridin-3-yl)-6-(2,6-difluoro-4-(3-methoxyoxetan-3-yl)phenyl)-5-fluoropicolinamide], for which the figures for the IC50 at Pim 2, against Pim 3 and against Pim 1 were 4.79 nM, 2.86 nM and 0.05 nM, respectively. This compound also had an EC50 in test [1] of 55 nM.
The matching figures for `COC1(c2cc(F)c(-c3nc(C(=O)Nc4cnccc4[C@@H]4C[C@H](C)C[C@H](N)C4)ccc3F)c(F)c2)COC1` [Example 53, N-(4-((1R,3S,5S)-3-amino-5-methylcyclohexyl)pyridin-3-yl)-6-(2,6-difluoro-4-(3-methoxyoxetan-3-yl)phenyl)-5-fluoropicolinamide]: 2.56 nM, 4.05 nM, 0.05 nM and 32 nM.
Consider `C[C@H]1C[C@@H](c2ccncc2NC(=O)c2ccc(F)c(-c3c(F)cc(OC4CCOCC4)cc3F)n2)C[C@@H](N)[C@@H]1O` [Example 59], for which the IC50 against Pim 2 worked out at 2.77 nM; against Pim 3, 0.45 nM; on Pim 1, 0.02 nM. Further, in test [1], the EC50 stood at 28 nM.
Turning to `C[C@@H]1C[C@H](N)C[C@H](c2ccncc2NC(=O)c2ccc(F)c(-c3c(F)cc(C4(O)CCC4)cc3F)n2)C1` [Example 61, N-(4-((1R,3S,5S)-3-amino-5-methylcyclohexyl)pyridin-3-yl)-6-(2,6-difluoro-4-(1-hydroxycyclobutyl)phenyl)-5-fluoropicolinamide], the results for the IC50 at Pim 2, at Pim 3 and against Pim 1 were 1 nM, 0.52 nM and 0.02 nM, respectively. In test [1], the response was half-maximal at 47 nM (EC50).

The values are drawn from patent US20120225062A1 (priority 2011, published 2012).
